Test results reported in patent publication US10618887B2 (Sunesis Pharmaceuticals, Inc., priority 2012, dated 2020).

How the values were obtained:
[1] = biological target: T1, hERG (human ether-à-go-go-related gene) potassium channel (Homo sapiens, UniProt Q12809); assay: FastPatch hERG inhibition assay (QPatch HT, HEK293 cells stably transfected with hERG cDNA); type: cell-based; details: for IC50: HEK293 cells, automated patch clamp, IC50 estimated from hERG inhibition data
T1 construct: host or cells: HEK293
T1 sequence (Q12809 whole entry): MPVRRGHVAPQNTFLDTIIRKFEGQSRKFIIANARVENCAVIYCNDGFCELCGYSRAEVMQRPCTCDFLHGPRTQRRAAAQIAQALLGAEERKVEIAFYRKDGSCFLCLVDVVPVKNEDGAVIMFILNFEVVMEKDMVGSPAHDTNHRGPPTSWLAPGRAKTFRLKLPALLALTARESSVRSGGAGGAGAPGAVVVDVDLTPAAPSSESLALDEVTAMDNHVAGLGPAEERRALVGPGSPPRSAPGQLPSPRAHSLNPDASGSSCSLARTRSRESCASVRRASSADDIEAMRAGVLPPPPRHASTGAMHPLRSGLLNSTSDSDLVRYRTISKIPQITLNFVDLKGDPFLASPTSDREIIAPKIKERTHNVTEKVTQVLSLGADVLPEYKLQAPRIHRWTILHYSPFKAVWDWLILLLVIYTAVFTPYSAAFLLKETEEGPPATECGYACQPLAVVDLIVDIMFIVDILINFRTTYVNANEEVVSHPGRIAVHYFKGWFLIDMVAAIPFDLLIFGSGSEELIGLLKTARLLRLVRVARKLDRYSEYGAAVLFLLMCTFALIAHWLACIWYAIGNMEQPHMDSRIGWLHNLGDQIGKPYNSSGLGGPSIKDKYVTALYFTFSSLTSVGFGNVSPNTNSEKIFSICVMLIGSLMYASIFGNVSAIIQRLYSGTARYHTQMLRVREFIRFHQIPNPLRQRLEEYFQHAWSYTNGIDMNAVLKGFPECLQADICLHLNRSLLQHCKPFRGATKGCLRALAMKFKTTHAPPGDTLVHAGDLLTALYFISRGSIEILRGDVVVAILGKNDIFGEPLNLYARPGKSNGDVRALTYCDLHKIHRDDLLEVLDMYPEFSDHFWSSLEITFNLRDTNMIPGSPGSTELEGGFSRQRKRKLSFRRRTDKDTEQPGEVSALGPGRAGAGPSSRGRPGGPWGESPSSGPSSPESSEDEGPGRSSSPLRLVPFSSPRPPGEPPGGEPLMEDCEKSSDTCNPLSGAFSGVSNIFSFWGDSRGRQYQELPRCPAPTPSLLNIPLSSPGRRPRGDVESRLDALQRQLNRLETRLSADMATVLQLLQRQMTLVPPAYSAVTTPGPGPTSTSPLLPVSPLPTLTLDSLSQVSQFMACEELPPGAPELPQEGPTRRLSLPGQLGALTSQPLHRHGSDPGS
Source text: (§1) Protocol for FastPatch hERG Inhibition Assay:
(§2) The cardiac potassium channel, hERG, is responsible for a rapid delayed rectifier current (IKr) in human ventricle and inhibition of IKr is the most common cause of cardiac action potential prolongation by non-cardiac drugs (see, e.g., Weirich and Antoni, Basic Res. Cardiol., 93, Suppl. 1, 125-32, 1998; Yap and Camm, Clin. Exp. Allergy, 29, Suppl. 3, 174-81, 1999). Increased action potential duration has been cited as a factor in causing prolongation of the QT interval that has been associated with a dangerous ventricular arrhythmia, torsade de pointes (Brown and Rampe, Pharmaceutical News, 7, 15-20, 2000).
(§3) The in vitro effects of provided compounds was investigated on the hERG (human ether-à-go-go-related gene) potassium channel current (a surrogate for IKr, the rapidly activating, delayed rectifier cardiac potassium current) expressed in human embryonic kidney (HEK293) cells stably transfected with hERG cDNA. Cells were placed in HEPES-buffered physiological saline solution in a glass-lined 96-well plate and loaded with appropriate amounts of test and control solutions for a duration of a 3-minute exposure at each concentration. Test compound was diluted in 0.3% DMSO. An automated parallel patch clamp system, QPatch HT (Sophion Bioscience A/S, Denmark), was used to evaluate at various concentrations (e.g., 10 μM). The IC50 values was estimated based on the hERG inhibition data. The study was performed at ChanTest (14656 Neo Parkway, Cleveland, Ohio). The QPatch screen is further described by Janzen and Bernasconi (eds.), High Throughput Screening, Methods and Protocols, Second Edition, vol. 565, chapter 10, pg. 209-223, 2009.

[2] = biological target: T2, BTK (Homo sapiens, UniProt Q06187); assay: In vitro BTK kinase assay: BTK-POLYGAT-LS assay; type: biochemical; details: ATP 10 uM, polyGAT 100 nM, BTK 0.25 nM, 30 minutes; read-out: IC50 against BTK (polyGAT assay)
T2 construct: purchased Upstate 14-552
T2 sequence (Q06187 whole entry): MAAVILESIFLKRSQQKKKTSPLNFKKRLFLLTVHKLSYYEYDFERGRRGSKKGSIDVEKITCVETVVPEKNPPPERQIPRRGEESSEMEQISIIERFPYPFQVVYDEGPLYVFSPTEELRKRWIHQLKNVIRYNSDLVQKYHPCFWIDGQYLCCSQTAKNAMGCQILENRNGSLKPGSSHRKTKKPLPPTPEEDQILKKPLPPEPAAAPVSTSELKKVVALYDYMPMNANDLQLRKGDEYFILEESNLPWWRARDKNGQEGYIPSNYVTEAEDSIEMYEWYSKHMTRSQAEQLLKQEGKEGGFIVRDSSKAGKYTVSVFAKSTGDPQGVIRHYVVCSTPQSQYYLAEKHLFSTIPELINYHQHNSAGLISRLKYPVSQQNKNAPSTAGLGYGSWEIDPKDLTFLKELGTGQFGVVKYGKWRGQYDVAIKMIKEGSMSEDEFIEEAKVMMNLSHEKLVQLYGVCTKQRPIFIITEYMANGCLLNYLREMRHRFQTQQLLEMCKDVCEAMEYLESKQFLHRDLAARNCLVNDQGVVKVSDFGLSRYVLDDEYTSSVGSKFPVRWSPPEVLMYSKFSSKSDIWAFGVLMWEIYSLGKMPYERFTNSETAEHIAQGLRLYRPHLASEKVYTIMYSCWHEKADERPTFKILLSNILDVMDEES
Procedure: In vitro BTK kinase assay: BTK-POLYGAT-LS ASSAY. The purpose of the BTK in vitro assay was to determine compound potency against BTK through the measurement of IC50. Compound inhibition was measured after monitoring the amount of phosphorylation of a fluorescein-labeled polyGAT peptide (Invitrogen PV3611) in the presence of active BTK enzyme (Upstate 14-552), ATP, and inhibitor. The BTK kinase reaction was done in a black 96 well plate (costar 3694). For a typical assay, a 24 uL aliquot of an ATP/peptide master mix (final concentration; ATP 10 uM, polyGAT 100 nM) in kinase buffer (10 mM Tris-HCl pH 7.5, 10 mM MgCl2, 200 uM […], 5 mM DTT, 0.01% Triton X-100, and 0.2 mg/ml casein) was added to each well. Next, 1 uL of a 4-fold, 40× compound titration in 100% DMSO solvent was added, followed by adding 15 uL of BTK enzyme mix in 1× kinase buffer (with a final concentration of 0.25 nM). The assay was incubated for 30 minutes before being stopped with 28 uL of a 50 mM EDTA solution. Aliquots (5 uL) of the kinase reaction were transferred to a low volume white 384 well plate (Corning 3674), and 5 uL of a 2× detection buffer (Invitrogen PV3574, with 4 nM Tb-PY20 antibody, Invitrogen PV3552) was added. The plate was covered and incubated for 45 minutes at room temperature. Time resolved fluorescence (TRF) on Molecular Devices M5 (332 nm excitation; 488 nm emission; 518 nm fluorescein emission) was measured. IC50 values were calculated using a four parameter fit with 100% enzyme activity determined from the DMSO control and 0% activity from the EDTA control.

[3] = biological target: T3, human PXR (Homo sapiens, UniProt O75469); assay: PXR nuclear receptor activation reporter gene assay in human DPX2 cells; type: cell-based; details: 24 hr treatment
T3 construct: expressed in transfected cells; host or cells: DPX2 tumor cell line
T3 sequence (O75469 1-434): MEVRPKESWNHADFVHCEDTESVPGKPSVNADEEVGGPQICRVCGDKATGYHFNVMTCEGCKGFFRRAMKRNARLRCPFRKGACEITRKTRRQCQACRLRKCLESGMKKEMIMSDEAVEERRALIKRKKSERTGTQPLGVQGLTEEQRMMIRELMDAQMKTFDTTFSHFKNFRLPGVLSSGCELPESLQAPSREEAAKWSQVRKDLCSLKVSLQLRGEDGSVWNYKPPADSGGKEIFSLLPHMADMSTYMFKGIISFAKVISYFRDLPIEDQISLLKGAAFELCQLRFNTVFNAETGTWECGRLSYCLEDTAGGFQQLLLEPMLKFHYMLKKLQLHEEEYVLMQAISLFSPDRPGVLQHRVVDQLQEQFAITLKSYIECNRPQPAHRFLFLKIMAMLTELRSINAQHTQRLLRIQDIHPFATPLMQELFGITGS
Source text: Study Protocol to Determine Activation of the PXR Nuclear Receptor in Human DPX2 Cells
Based on this pathway of CYP3A4 induction, cell-based PXR reporter gene assay is commonly used to screen new molecular entities (NMEs) in early drug discovery stage, for their potential to induce CYP3A4 (Luo G, et al.; Drug Metab Dispos. 2002 July; 30(7):795-804.) Studies were designed to evaluate the effect of new molecular entities (NMEs) on the activation of human PXR in DPX2 cells. Cell lines stably transfected with the PXR nuclear receptor and corresponding response elements were seeded into 96-well plates. Twenty-four hr after seeding, cells were treated with 6 distinct concentrations of NMEs in triplicate wells (see below), and cells then returned to the incubator for an additional 24 hr. At the end of this incubation period, the number of viable cells/well were determined using Promega's Cell Titer Fluor cytotoxicity assay. Following this assay, Promega's ONE-Glo was added to the same wells and reporter gene activity assessed.
The test system consisted of the stably transformed DPX2 tumor cell line plated on 96-well microtiter plates. An expression vector harboring the PXR nuclear receptor plus the appropriate enhancers and promoters linked to the luciferase reporter gene have been stably integrated into these tumor cell lines. Receptor activation was assessed by monitoring reporter gene activity, and by comparing the results to vehicle-treated cells. Positive controls consist of cells treated with 6 different concentrations (0.1, 0.5, 1, 5, 10, and 20 μM) of rifampicin. In this manner, compounds activating PXR can be easily and rapidly identified. Since stably-integrated cell lines were used, it is possible to observe from 3- to 70-fold receptor activation.
Data processed using MS-Excel was calculated as the mean (n=3) and % CV of the fold PXR activation relative to vehicle-treated cells at each of the 6 different doses. All activation data was normalized to the number of viable cells/well. Results were also expressed as a percentage of the response given by the appropriate positive control at a 10 μM dose. EC50 and Emax values were derived for test compounds that give receptor activation using nonlinear regression of typical log dose-response curves (Prism V5.0c, GraphPad Software, San Diego, Calif.).
d) New Molecular Entities (NMEs): Test Compounds were Tested at 0.05, 0.1, 0.5, 1, 2.5, and 10 μM

[4] = biological target: T4, hERG potassium channel (Homo sapiens, UniProt Q12809); assay: FastPatch hERG inhibition assay (QPatch HT, HEK293 cells stably transfected with hERG cDNA); type: cell-based; details: human, HEK293 cells stably transfected with hERG cDNA; 10 uM, HEK293 cells, automated patch clamp
T4 construct: host or cells: HEK293
T4 sequence (Q12809 whole entry): as the sequence (Q12809 whole entry) above
Source text: as §1, §2, §3

| Structure (SMILES) | IC50 [2] [nM] | PXR % induction (relative to 10 uM rifampin) [3] [%] | IC50 [1] [nM] | observable activity in the hERG assay at 10 uM ([1]; 10 uM, no IC50 available) | inhibition at 3 min, 10 µM [4] [%] |
| --- | --- | --- | --- | --- | --- |
| CN(C)C(=O)[C@H]1CCN(c2ncnc(N)c2F)C[C@@H]1N1CCC[C@@H](Nc2cc(Cl)cc(C(F)(F)F)c2)C1=O [Compound I-3, (3R,3′R,4′S)-1′-(6-amino-5-fluoropyrimidin-4-yl)-3-((3-chloro-5-(trifluoromethyl)phenyl)amino)-N,N-dimethyl-2-oxo-[1,3′-bipiperidine]-4′-carboxamide] | 2.07 | 47 | 14600 |  |  |
| NC(=O)[C@H]1CCN(c2ncnc(N)c2F)C[C@@H]1N1CCC[C@@H](Nc2cc(F)cc(C(F)(F)F)c2)C1=O [Compound I-5, (3R,3′R,4′S)-1′-(6-amino-5-fluoropyrimidin-4-yl)-3-((3-fluoro-5-(trifluoromethyl)phenyl)amino)-2-oxo-[1,3′-bipiperidine]-4′-carboxamide] | 1.6 | 90 |  | no observable activity |  |
| CN1CCN(C(=O)[C@H]2CCN(c3ncnc(N)c3F)C[C@@H]2N2CCC[C@@H](Nc3cc(Cl)cc(C(F)(F)F)c3)C2=O)CC1 [Compound I-7] | 1.2 |  |  |  | 65 |
| Nc1ncnc(N2CCC[C@@H](N3CCC[C@@H](Nc4cc(Cl)cc(C(F)(F)F)c4)C3=O)C2)c1F [I^C, reference compound] | 2 | 95 | 1180 |  | 87 |

Compounds with a lower IC50 [2], results first:

| IC50 [2] [nM] | PXR % induction (relative to 10 uM rifampin) [3] [%] | Structure (SMILES) | IC50 [1] [nM] | observable activity in the hERG assay at 10 uM ([1]; 10 uM, no IC50 available) | inhibition at 3 min, 10 µM [4] [%] |
| --- | --- | --- | --- | --- | --- |
| 0.73 | 62 | NC(=O)[C@H]1CCN(c2ncnc(N)c2F)C[C@@H]1N1CCC[C@@H](Nc2cc(Cl)cc(C(F)(F)F)c2)C1=O [Compound I-1, (3R,3′R,4′S)-1′-(6-amino-5-fluoropyrimidin-4-yl)-3-((3-chloro-5-(trifluoromethyl)phenyl)amino)-2-oxo-[1,3′-bipiperidine]-4′-carboxamide] | 15600 |  |  |
| 0.68 | 42 | NC(=O)[C@H]1CCN(c2ncnc(N)c2F)C[C@@H]1N1CCC[C@@H](Nc2cc(F)cc(Cl)c2)C1=O [Compound I-2] | 30000 |  |  |
| 0.63 | 67 | CNC(=O)[C@H]1CCN(c2ncnc(N)c2F)C[C@@H]1N1CCC[C@@H](Nc2cc(Cl)cc(C(F)(F)F)c2)C1=O [Compound I-4] | 13700 |  |  |
| < 1 |  | NC(=O)[C@H]1CCN(c2ncnc(N)c2F)C[C@@H]1N1CCC[C@@H](Nc2cc(Cl)cc(OC(F)(F)F)c2)C1=O [Compound I-6] |  |  | < 20 |
